From PubChem BioAssay (NCI)
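1) Cells in 96-well plates. 2) Compound, 48 h, 5 concentrations. 3) Linear interpolation between surrounding doses. 4) Unreached endpoint = highest concentration. The concentration for 50% growth inhibition is given as GI50. TGI: total growth inhibition.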

How the values were obtained:
Experiment in all cases: NCI anticancer screen, dose series, 48 h
786-0 renal = tested on: 786-0 renal
A549 NSCLC = tested on: A549 NSCLC
ACHN renal = tested on: ACHN renal
CAKI-1 renal = tested on: CAKI-1 renal
COLO 205 colon = tested on: COLO 205 colon
DU-145 prostate = tested on: DU-145 prostate
HCC-2998 colon = tested on: HCC-2998 colon
HCT-116 colon = tested on: HCT-116 colon
HL-60(TB) leukemia = tested on: HL-60(TB) leukemia
HOP-92 NSCLC = tested on: HOP-92 NSCLC
HT29 colon = tested on: HT29 colon
MALME-3M melanoma = tested on: MALME-3M melanoma
MDA-MB-231 breast = tested on: MDA-MB-231 breast
NCI-H522 lung = tested on: NCI-H522 lung
OVCAR-5 ovarian = tested on: OVCAR-5 ovarian
OVCAR-8 ovarian = tested on: OVCAR-8 ovarian
PC-3 prostate = tested on: PC-3 prostate
SF-295 CNS = tested on: SF-295 CNS
SK-MEL-28 melanoma = tested on: SK-MEL-28 melanoma
SK-MEL-5 melanoma = tested on: SK-MEL-5 melanoma
SK-OV-3 ovarian = tested on: SK-OV-3 ovarian
SN12C renal = tested on: SN12C renal
SNB-75 CNS = tested on: SNB-75 CNS
SR leukemia = tested on: SR leukemia
SW-620 colon = tested on: SW-620 colon
TK-10 renal = tested on: TK-10 renal
UACC-62 melanoma = tested on: UACC-62 melanoma
UO-31 renal = tested on: UO-31 renal
A498 renal = tested on: A498 renal
BT-549 breast = tested on: BT-549 breast
CCRF-CEM leukemia = tested on: CCRF-CEM leukemia
EKVX NSCLC = tested on: EKVX NSCLC
HCT-15 colon = tested on: HCT-15 colon
HOP-62 NSCLC = tested on: HOP-62 NSCLC
HS 578T breast = tested on: HS 578T breast
IGROV1 ovarian = tested on: IGROV1 ovarian
K-562 leukemia = tested on: K-562 leukemia
KM12 colon = tested on: KM12 colon
LOX IMVI melanoma = tested on: LOX IMVI melanoma
M14 melanoma = tested on: M14 melanoma
MCF7 breast = tested on: MCF7 breast
NCI-H226 lung = tested on: NCI-H226 lung
NCI-H23 lung = tested on: NCI-H23 lung
NCI-H460 lung = tested on: NCI-H460 lung
NCI/ADR-RES ovarian = tested on: NCI/ADR-RES ovarian
OVCAR-3 ovarian = tested on: OVCAR-3 ovarian
OVCAR-4 ovarian = tested on: OVCAR-4 ovarian
RPMI-8226 leukemia = tested on: RPMI-8226 leukemia
RXF 393 renal = tested on: RXF 393 renal
SF-268 CNS = tested on: SF-268 CNS
SF-539 CNS = tested on: SF-539 CNS
SNB-19 CNS = tested on: SNB-19 CNS
T-47D breast = tested on: T-47D breast
U251 CNS = tested on: U251 CNS
UACC-257 melanoma = tested on: UACC-257 melanoma
MDA-MB-435 = tested on: MDA-MB-435
MOLT-4 leukemia = tested on: MOLT-4 leukemia
SK-MEL-2 melanoma = tested on: SK-MEL-2 melanoma

OC(c1cc2ccc(C(F)(F)F)cc2c2cc(C(F)(F)F)ccc12)C1CCCCN1 (stereo unspecified)
TGI (786-0 renal): 2.98 µM | TGI (A549 NSCLC): 3.26 µM | TGI (ACHN renal): 2.62 µM | TGI (CAKI-1 renal): 3.13 µM | TGI (COLO 205 colon): 3.05 µM | TGI (DU-145 prostate): 3.21 µM | TGI (HCC-2998 colon): 2.62 µM | TGI (HCT-116 colon): 2.8 µM | TGI (HL-60(TB) leukemia): > 100 µM | TGI (HOP-92 NSCLC): 3.19 µM | TGI (HT29 colon): 3.4 µM | TGI (MALME-3M melanoma): 1.5 µM | TGI (MDA-MB-231 breast): 3.2 µM | TGI (NCI-H522 lung): 3.16 µM | TGI (OVCAR-5 ovarian): 3.18 µM | GI50 (OVCAR-8 ovarian): 1.86 µM | TGI (OVCAR-8 ovarian): 3.74 µM | TGI (PC-3 prostate): 2.92 µM | GI50 (SF-295 CNS): 1.83 µM | TGI (SF-295 CNS): 3.41 µM | TGI (SK-MEL-28 melanoma): 3.36 µM | TGI (SK-MEL-5 melanoma): 2.89 µM | TGI (SK-OV-3 ovarian): 3.82 µM | TGI (SN12C renal): 3.26 µM | TGI (SNB-75 CNS): 2.57 µM | TGI (SR leukemia): 4.99 µM | TGI (SW-620 colon): 2.84 µM | TGI (TK-10 renal): 3.71 µM | TGI (UACC-62 melanoma): 3.49 µM | TGI (UO-31 renal): 2.71 µM

CC1(C)CC2C(=O)c3ccccc3NC2c2ccccc21 (stereo unspecified)
TGI (786-0 renal): > 100 µM | TGI (A498 renal): > 100 µM | TGI (A549 NSCLC): > 100 µM | TGI (ACHN renal): > 100 µM | TGI (BT-549 breast): > 100 µM | TGI (CAKI-1 renal): > 100 µM | TGI (CCRF-CEM leukemia): > 100 µM | TGI (COLO 205 colon): 22.1 µM | TGI (DU-145 prostate): > 100 µM | TGI (EKVX NSCLC): > 100 µM | TGI (HCC-2998 colon): > 100 µM | TGI (HCT-116 colon): > 100 µM | TGI (HCT-15 colon): > 100 µM | TGI (HL-60(TB) leukemia): 32.6 µM | TGI (HOP-62 NSCLC): > 100 µM | TGI (HOP-92 NSCLC): > 100 µM | TGI (HS 578T breast): 6.99 µM | TGI (HT29 colon): > 33.2 µM | TGI (IGROV1 ovarian): > 100 µM | TGI (K-562 leukemia): > 90.6 µM | TGI (KM12 colon): > 81.3 µM | TGI (LOX IMVI melanoma): > 100 µM | TGI (M14 melanoma): > 100 µM | TGI (MALME-3M melanoma): > 100 µM | TGI (MCF7 breast): > 100 µM | TGI (NCI-H226 lung): > 100 µM | TGI (NCI-H23 lung): > 64.8 µM | TGI (NCI-H460 lung): > 100 µM | TGI (NCI-H522 lung): 4.49 µM | TGI (NCI/ADR-RES ovarian): > 100 µM | TGI (OVCAR-3 ovarian): > 100 µM | TGI (OVCAR-4 ovarian): > 100 µM | TGI (OVCAR-5 ovarian): > 100 µM | TGI (OVCAR-8 ovarian): > 100 µM | TGI (PC-3 prostate): > 100 µM | TGI (RPMI-8226 leukemia): 14.4 µM | TGI (RXF 393 renal): 8.58 µM | TGI (SF-268 CNS): > 100 µM | TGI (SF-295 CNS): > 22.9 µM | TGI (SF-539 CNS): > 22.8 µM | TGI (SK-MEL-28 melanoma): > 100 µM | TGI (SK-MEL-5 melanoma): 26.7 µM | TGI (SN12C renal): > 100 µM | TGI (SNB-19 CNS): > 100 µM | TGI (SNB-75 CNS): > 100 µM | TGI (SR leukemia): > 100 µM | TGI (SW-620 colon): > 100 µM | TGI (T-47D breast): > 100 µM | TGI (TK-10 renal): > 100 µM | TGI (U251 CNS): > 100 µM | TGI (UACC-257 melanoma): > 100 µM | TGI (UACC-62 melanoma): > 100 µM | TGI (UO-31 renal): > 67.2 µM

Cc1cn(-c2cc(F)cc(NC(=O)c3ccc(C)c(Nc4nccc(-c5cccnc5)n4)c3)c2)cn1
GI50 (A498 renal): > 100 µM | TGI (A498 renal): > 100 µM | GI50 (HL-60(TB) leukemia): > 100 µM | TGI (HL-60(TB) leukemia): > 100 µM | GI50 (SK-MEL-5 melanoma): > 100 µM | TGI (SK-MEL-5 melanoma): > 100 µM

C=Cc1ccccc1C1(O)C=CC(OC)(OC)C=C1
TGI (786-0 renal): 16.4 µM | TGI (A498 renal): 41 µM | TGI (A549 NSCLC): 36.9 µM | TGI (ACHN renal): 39 µM | TGI (CAKI-1 renal): 18.4 µM | TGI (CCRF-CEM leukemia): 8.46 µM | TGI (COLO 205 colon): 25.9 µM | TGI (DU-145 prostate): 68.8 µM | TGI (EKVX NSCLC): 50.5 µM | TGI (HCC-2998 colon): 33.4 µM | TGI (HCT-116 colon): 11.7 µM | TGI (HCT-15 colon): 13.1 µM | TGI (HL-60(TB) leukemia): 6.38 µM | TGI (HOP-62 NSCLC): 19.5 µM | TGI (HS 578T breast): > 100 µM | TGI (HT29 colon): 11.7 µM | TGI (IGROV1 ovarian): 27 µM | TGI (K-562 leukemia): > 100 µM | TGI (KM12 colon): 19.4 µM | TGI (M14 melanoma): 18.5 µM | TGI (MALME-3M melanoma): 27.8 µM | TGI (MCF7 breast): 13.3 µM | TGI (MDA-MB-231 breast): 24.8 µM | TGI (MDA-MB-435): 14 µM | TGI (MOLT-4 leukemia): 10.6 µM | TGI (NCI-H226 lung): 80.9 µM | TGI (NCI-H23 lung): 16.2 µM | TGI (NCI-H460 lung): 21.9 µM | TGI (NCI-H522 lung): 23.9 µM | TGI (NCI/ADR-RES ovarian): 29.4 µM | TGI (OVCAR-3 ovarian): 7.53 µM | TGI (OVCAR-4 ovarian): 37.2 µM | TGI (OVCAR-5 ovarian): 20.2 µM | TGI (OVCAR-8 ovarian): 3.65 µM | TGI (PC-3 prostate): 29.1 µM | TGI (RPMI-8226 leukemia): 45.2 µM | TGI (RXF 393 renal): 14.8 µM | TGI (SF-268 CNS): 33.9 µM | TGI (SF-295 CNS): 32.5 µM | TGI (SF-539 CNS): 6.4 µM | TGI (SK-MEL-2 melanoma): 37.9 µM | TGI (SK-MEL-28 melanoma): 20.8 µM | TGI (SK-MEL-5 melanoma): 26.9 µM | TGI (SK-OV-3 ovarian): 29.3 µM | TGI (SN12C renal): 24.4 µM | TGI (SNB-19 CNS): 30.8 µM | TGI (SNB-75 CNS): 38.7 µM | TGI (SR leukemia): 7.02 µM | TGI (SW-620 colon): 11.5 µM | TGI (T-47D breast): > 100 µM | TGI (TK-10 renal): 10.7 µM | TGI (U251 CNS): 12.7 µM | TGI (UACC-257 melanoma): 24.1 µM | TGI (UACC-62 melanoma): 17.6 µM | TGI (UO-31 renal): 19.8 µM

C=C(CNCCc1ccc(O)cc1)[C@@H]1CC[C@]2(COC3CCCCO3)CC[C@]3(C)[C@H](CC[C@@H]4[C@@]5(C)CCC(NCCO)C(C)(C)[C@@H]5CC[C@]43C)[C@@H]12 (stereo partly specified)
GI50 (A498 renal): 1.33 µM | TGI (A498 renal): 2.72 µM | GI50 (ACHN renal): 1.64 µM | TGI (ACHN renal): 3.04 µM | GI50 (CAKI-1 renal): 1.52 µM | TGI (CAKI-1 renal): 2.86 µM | GI50 (DU-145 prostate): 1.25 µM | TGI (DU-145 prostate): 2.58 µM | GI50 (HCT-15 colon): 0.39 µM | TGI (HCT-15 colon): 1.49 µM | GI50 (MDA-MB-435): 1.35 µM | TGI (MDA-MB-435): 2.65 µM | GI50 (NCI-H460 lung): 0.339 µM | TGI (NCI-H460 lung): 1.07 µM | GI50 (OVCAR-3 ovarian): 1.28 µM | TGI (OVCAR-3 ovarian): 2.77 µM | GI50 (OVCAR-4 ovarian): 1.39 µM | TGI (OVCAR-4 ovarian): 2.82 µM | GI50 (OVCAR-5 ovarian): 1.67 µM | TGI (OVCAR-5 ovarian): 3.13 µM | GI50 (SW-620 colon): 0.211 µM | TGI (SW-620 colon): 0.453 µM
